Values of other authors as cited in US7338780B2, “Method for producing tripeptides and/or peptides longer than tripeptides” (Ajinomoto Co., Inc., priority 2002, dated 2008).
Residues, ends and D or L forms follow the SMILES beside them.

C[C@H](N)C(=O)N[C@@H](CCC(N)=O)C(=O)O [L-alanyl-L-glutamine] (H-Ala-Gln-OH)
water-solubility compared with L-glutamine: higher
